Drawing on US9000007B2, “5-benzylaminomethyl-6-aminopyrazolo [3, 4 -B] pyridine derivatives as cholesteryl ester-transfer protein (CETP) inhibitors useful for the treatment of atherosclerosis” (Dr. Reddy's Laboratories, Ltd., priority 2011, dated 2015), this text covers IC50 for 18 compounds.

For the experiment, the target named is T1, recombinant CETP enzyme (rCETP) (Homo sapiens, UniProt P11597).
T1 construct: purchased ROAR Biomedicals, USA
T1 sequence (P11597 18-493): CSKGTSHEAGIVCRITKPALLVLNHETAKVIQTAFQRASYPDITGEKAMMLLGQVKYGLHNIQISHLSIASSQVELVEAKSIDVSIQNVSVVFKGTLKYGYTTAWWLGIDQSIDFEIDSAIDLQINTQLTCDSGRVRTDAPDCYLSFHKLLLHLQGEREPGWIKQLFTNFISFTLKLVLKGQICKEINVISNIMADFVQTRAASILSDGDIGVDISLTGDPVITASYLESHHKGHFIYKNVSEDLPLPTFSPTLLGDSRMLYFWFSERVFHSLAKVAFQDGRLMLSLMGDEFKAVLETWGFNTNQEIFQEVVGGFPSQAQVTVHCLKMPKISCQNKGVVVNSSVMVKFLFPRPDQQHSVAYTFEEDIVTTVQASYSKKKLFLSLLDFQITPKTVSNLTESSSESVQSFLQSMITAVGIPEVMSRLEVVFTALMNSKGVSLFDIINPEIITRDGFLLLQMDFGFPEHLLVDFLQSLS
Briefly: In vitro CETP inhibition assay, fluorometric kit (ROAR Biomedicals). It is filed as biochemical. To be noted: rCETP 50 ng, 37° C. for 90 minutes, fluorescence Ex 492 nm / Em 516 nm. An excerpt: Determination of in Vitro CETP Activity Using Fluorometric Technique
An in vitro cholesteryl ester transfer protein inhibition (CETP) assay using a commercially available fluorometric assay kit from ROAR Biomedicals, USA was used to measure the CETP inhibition activity of the compounds of this application. This assay kit uses a donor molecule containing a fluorescent self-quenched neutral lipid that is transferred to an acceptor molecule in the presence of recombinant CETP enzyme (rCETP). The CETP-mediated transfer of the fluorescent neutral lipid to the acceptor molecule results in an increase in fluorescence (Excitation: 492 nm; Emission: 516 nm).
20 mM stock solutions of compounds were prepared in 100% DMSO and further dilutions were made such that the final concentration of DMSO in the reaction mix was 1%. […] The assay was performed in 96 well microplates and in each well, the reaction mixture contained 190 μl of assay buffer (150 mM NaCl, 10 mM Tris and 2 mM EDTA, pH-7.4), 4 μl of donor particle, 4 μl of acceptor particle, rCETP (50 ng) and 2 μl of test compound at varying final concentration of 0.1, 1, 10, 100, 1000 & 10000 nM. Two control reactions were performed, one without test compound (positive control) and the other without the rCETP (negative control). The reactions were incubated at 37° C. for 90 minutes and the reaction plate was transferred to a PCR machine MX3005P and the fluorescence units (FLU) were quantified (Excitation: 492 nm; Emission: 516 nm).
The negative control values were subtracted from the positive control as well as all the test values to correct for background fluorescence. The percentage inhibition of activity was calculated by using the following equation: % Inhibition of CETP activity=[100−(100×(FLU in test/FLU in positive control))].
The half maximal inhibitory concentration (IC50) was determined using the BIOGRAPH software (version no. 3.3).
On to `Cc1nn(C(C)(C)C)c2nc(N(CC3CC3)CC3CC3)c(CN(Cc3cc(C(F)(F)F)cc(C(F)(F)F)c3)c3ncc(NC(=O)C(C)C)cn3)cc12` [Example 1, N-(2-(((6-(bis(cyclopropylmethyl)amino)-1-(tert-butyl)-3-methyl-1H-pyrazolo[3,4-b]pyridin-5-yl)methyl)(3,5-bis(trifluoromethyl)benzyl)amino)pyrimidin-5-yl) isobutyramide], for which the half-inhibitory concentration (IC50) came to 64 nM.

`Cc1nn(C(C)(C)C)c2nc(N(CC3CC3)CC3CC3)c(CN(Cc3cc(C(F)(F)F)cc(C(F)(F)F)c3)c3ccc(C4CC4)cn3)cc12` [Example 2, 5-(((3,5-Bis(trifluoromethyl)benzyl)(5-cyclopropylpyridin-2-yl)amino)methyl)-1-(tert-butyl)-N,N-bis(cyclopropylmethyl)-3-methyl-1H-pyrazolo[3,4-b]pyridin-6-amine]: the IC50 worked out at 78 nM.

As for `Cc1nn(C(C)(C)C)c2nc(N(CC3CC3)CC3CC3)c(CN(Cc3cc(C(F)(F)F)cc(C(F)(F)F)c3)c3ncc(NC(=O)C4CC4)cn3)cc12` [Example 3, N-(2-(((6-(bis(cyclopropylmethyl)amino)-1-(tert-butyl)-3-methyl-1H-pyrazolo[3,4-b]pyridin-5-yl)methyl)(3,5-bis(trifluoromethyl)benzyl)amino)pyrimidin-5-yl)cyclopropanecarboxamide], the IC50 worked out at 35 nM.

Regarding `CC(=O)c1cnc(N(Cc2cc(C(F)(F)F)cc(C(F)(F)F)c2)Cc2cc3c(C)nn(C)c3nc2N(CC2CC2)CC2CC2)nc1` [Example 4, 1-(2-(((6-(bis(cyclopropylmethyl)amino)-1,3-dimethyl-1H-pyrazolo[3,4-b]pyridin-5-yl)methyl)(3,5-bis(trifluoromethyl)benzyl)amino)pyrimidin-5-yl)ethanone], the half-maximal inhibitory concentration (IC50) was 5.7 nM.

`CC(=O)c1cnc(N(Cc2cc(C(F)(F)F)cc(C(F)(F)F)c2)Cc2cc3c(C)nn(C(C)(C)C)c3nc2N(CC2CC2)CC2CC2)nc1` [Example 5, 1-(2-(((6-(bis(cyclopropylmethyl)amino)-1-(tert-butyl)-3-methyl-1H-pyrazolo[3,4-b]pyridin-5-yl)methyl)(3,5-bis(trifluoromethyl)benzyl)amino)pyrimidin-5-yl)ethanone]: the IC50 is 41.5 nM.

Take `Cc1nn(C(C)(C)C)c2nc(N(CC3CC3)CC3CC3)c(CN(Cc3cc(C(F)(F)F)cc(C(F)(F)F)c3)c3ncc(-c4ccon4)cn3)cc12` [Example 7]: the IC50 is 9.4 nM.

With `Cc1nn(C(C)(C)C)c2nc(N(CC3CC3)CC3CC3)c(CN(Cc3cc(C(F)(F)F)cc(C(F)(F)F)c3)c3ncc(-c4cc[nH]n4)cn3)cc12` [Example 8, 5-(((5-(1H-pyrazol-3-yl)pyrimidin-2-yl)(3,5-bis(trifluoromethyl)benzyl)amino)methyl)-1-(tert-butyl)-N,N-bis(cyclopropylmethyl)-3-methyl-1H-pyrazolo[3,4-b]pyridin-6-amine], the IC50 turned out to be 27 nM.

Take `Cc1nn(C(C)(C)C)c2nc(N(CC3CC3)CC3CC3)c(CN(Cc3cc(C(F)(F)F)cc(C(F)(F)F)c3)c3ncc(-c4ccn(C)n4)cn3)cc12` [Example 9, 5-(((3,5-Bis(trifluoromethyl)benzyl)(5-(1-methyl-1H-pyrazol-3-yl)pyrimidin-2-yl)amino)methyl)-1-(tert-butyl)-N,N-bis(cyclopropylmethyl)-3-methyl-1H-pyrazolo[3,4-b]pyridin-6-amine]: the IC50 worked out at 100 nM.

For `Cc1nn(C(C)(C)C)c2nc(N(CC3CC3)CC3CC3)c(CN(Cc3cc(C(F)(F)F)cc(C(F)(F)F)c3)c3ncc(C#N)cn3)cc12` [Example 10, 2-(((6-(bis(cyclopropylmethyl)amino)-1-(tert-butyl)-3-methyl-1H-pyrazolo[3,4-b]pyridin-5-yl)methyl)(3,5-bis(trifluoromethyl)benzyl)amino)pyrimidine-5-carbonitrile], the half-maximal inhibitory concentration (IC50) amounted to 1250 nM.

For `Cc1nn(C(C)(C)C)c2nc(N(CC3CC3)CC3CC3)c(CN(Cc3cc(C(F)(F)F)cc(C(F)(F)F)c3)c3ncc(C(N)=O)cn3)cc12` [Example 11, 2-(((6-(bis(cyclopropylmethyl)amino)-1-(tert-butyl)-3-methyl-1H-pyrazolo[3,4-b]pyridin-5-yl)methyl)(3,5-bis(trifluoromethyl)benzyl)amino)pyrimidine-5-carboxamide], the IC50 was found to be 18 nM.

As for `Cc1nn(C(C)(C)C)c2nc(N(CC3CC3)CC3CC3)c(CN(Cc3cc(C(F)(F)F)cc(C(F)(F)F)c3)c3ncc(C(=O)N(C)C)cn3)cc12` [Example 12, 2-(((6-(bis(cyclopropylmethyl)amino)-1-(tert-butyl)-3-methyl-1H-pyrazolo[3,4-b]pyridin-5-yl)methyl)(3,5-bis(trifluoromethyl)benzyl)amino)-N,N-dimethylpyrimidine-5-carboxamide], the IC50 worked out at 215 nM.

With `Cc1nn(C(C)(C)C)c2nc(N(CC3CC3)CC3CC3)c(CN(Cc3cc(C(F)(F)F)cc(C(F)(F)F)c3)c3ncc(N4CCOC4=O)cn3)cc12` [Example 13, 3-(2-(((6-(bis(cyclopropylmethyl)amino)-1-(tert-butyl)-3-methyl-1H-pyrazolo[3,4-b]pyridin-5-yl)methyl)(3,5-bis(trifluoromethyl)benzyl)amino)pyrimidin-5-yl)oxazolidin-2-one], the half-inhibitory concentration (IC50) was determined as 10 nM.

For `Cc1nn(C(C)(C)C)c2nc(N(CC3CC3)CC3CC3)c(CN(Cc3cc(C(F)(F)F)cc(C(F)(F)F)c3)c3ncc(N4CCOCC4)cn3)cc12` [Example 14, 5-(((3,5-Bis(trifluoromethyl)benzyl)(5-morpholinopyrimidin-2-yl)amino)methyl)-1-(tert-butyl)-N,N-bis(cyclopropylmethyl)-3-methyl-1H-pyrazolo[3,4-b]pyridin-6-amine], the IC50 was 46 nM.

On to `Cc1nn(C)c2nc(N(CC3CC3)CC3CC3)c(CN(Cc3cc(C(F)(F)F)cc(C(F)(F)F)c3)c3ncc(N4CCOCC4)cn3)cc12` [Example 15, 5-(((3,5-bis(trifluoromethyl)benzyl)(5-morpholinopyrimidin-2-yl)amino)methyl)-N,N-bis(cyclopropylmethyl)-1,3-dimethyl-1H-pyrazolo[3,4-b]pyridin-6-amine], for which the IC50 amounted to 49 nM.

Consider `Cc1nn(C(C)(C)C)c2nc(N(CC3CC3)CC3CC3)c(CN(Cc3cc(C(F)(F)F)cc(C(F)(F)F)c3)c3ncc(N4CCCC4=O)cn3)cc12` [Example 16, 1-(2-(((6-(Bis(cyclopropylmethyl)amino)-1-(tert-butyl)-3-methyl-1H-pyrazolo[3,4-b]pyridin-5-yl)methyl)(3,5-bis(trifluoromethyl)benzyl)amino)pyrimidin-5-yl)pyrrolidin-2-one], for which the 50% inhibitory concentration (IC50) was 56 nM.

For `Cc1nc(N(Cc2cc(C(F)(F)F)cc(C(F)(F)F)c2)Cc2cc3c(C)nn(C(C)(C)C)c3nc2N(CC2CC2)CC2CC2)ncc1C(=O)O` [Example 18, 2-(((6-(Bis(cyclopropylmethyl)amino)-1-(tert-butyl)-3-methyl-1H-pyrazolo[3,4-b]pyridin-5-yl)methyl)(3,5-bis(trifluoromethyl)benzyl)amino)-4-methylpyrimidine-5-carboxylic acid], the 50% inhibitory concentration (IC50) is 54 nM.

As for `CCOC(=O)c1cnc(N(Cc2cc(C(F)(F)F)cc(C(F)(F)F)c2)Cc2cc3c(C)nn(C(C)(C)C)c3nc2N(CC2CC2)CC2CC2)nc1` [Example 19, Ethyl 2-(((6-(bis(cyclopropylmethyl)amino)-1-(tert-butyl)-3-methyl-1H-pyrazolo[3,4-b]pyridin-5-yl)methyl)(3,5-bis(trifluoromethyl)benzyl)amino)pyrimidine-5-carboxylate], the IC50 is 70 nM.

In the case of `Cc1nn(C(C)(C)C)c2nc(N(CC3CC3)CC3CC3)c(CN(Cc3cc(C(F)(F)F)cc(C(F)(F)F)c3)c3ncc(C(=O)O)cn3)cc12` [Example 20, 2-(((6-(Bis(cyclopropylmethyl)amino)-1-(tert-butyl)-3-methyl-1H-pyrazolo[3,4-b]pyridin-5-yl)methyl)(3,5-bis(trifluoromethyl)benzyl)amino)pyrimidine-5-carboxylic acid], the IC50 is 61 nM.
